From ChEMBL document CHEMBL1255522, “Novel amides and esters prodrugs of olmesartan: Synthesis, bioconversion, and pharmacokinetic evaluation” (Bioorg Med Chem Lett, 2010)

Experiment: Stability in Sprague-Dawley rat plasma assessed as compound remaining at 50 mg/ml after 30 mins
Format: ADME, cell-free
Settings: read-out: Stability

`CCCc1nc(C(C)(C)O)c(C(=O)NCCCCCC[N+](=O)[O-])n1Cc1ccc(-c2ccccc2C2=NNNN2)cc1` gave a remaining at 0.5 h of 101%.
`CCCc1nc(C(C)(C)O)c(C(=O)NCCCCCCC(=O)O)n1Cc1ccc(-c2ccccc2C2=NNNN2)cc1` showed a remaining at 0.5 h of 97.5%.
`CCCc1nc(C(C)(C)O)c(C(=O)OCc2c[nH]c(=O)[nH]c2=O)n1Cc1ccc(-c2ccccc2C2=NNNN2)cc1` showed a remaining at 0.5 h of 96.3%.
Compound `CCCc1nc(C(C)(C)O)c(C(=O)OCCCCCC[N+](=O)[O-])n1Cc1ccc(-c2ccccc2C2=NNNN2)cc1` has a remaining at 0.5 h of 100%.
In the case of `CCCc1nc(C(C)(C)O)c(C(=O)OCCCCCCC(=O)OCC)n1Cc1ccc(-c2ccccc2C2=NNNN2)cc1`, the remaining at 0.5 h was 81.1%.
For `CCCc1nc(C(C)(C)O)c(C(=O)OCCCCCCC(=O)O)n1Cc1ccc(-c2ccccc2C2=NNNN2)cc1`, the remaining at 0.5 h was 98.8%.
Work on `CCCc1nc(C(C)(C)O)c(C(=O)NCCNCCO)n1Cc1ccc(-c2ccccc2C2=NNNN2)cc1` yielded a remaining at 0.5 h of 98.9%.
For `CCCCCCCCOC(=O)c1c(C(C)(C)O)nc(CCC)n1Cc1ccc(-c2ccccc2C2=NNNN2)cc1`, the remaining at 0.5 h was 90.2%.
